In ChEMBL document CHEMBL4270485, “Determination of Gymnemic Acid I as a Protein Biosynthesis Inhibitor Using Chemical Proteomics” (J Nat Prod, 2017):
Active and inactive are the calls of the source. The calls are words filed in the database; no cut-off is given here.

How the values were obtained:
[1] = target: T1, 80S Ribosome (Homo sapiens) (UniProt P08865+P42677+P62753+P15880+P23396+P61247+P62701+P22090+P46782+P62081+P62241+P46781+P46783+P62280+P25398+P62277+P62263+P62841+P62244+P62249+P08708+P62269+P39019+P60866+P63220+P62266+P62847+P62851+P62854+P62979+P62857+P62273+P62861+P39023+P36578+P46777+Q02878+P18124+P62424+P62917+P32969+P27635+P62906+P62913+P30050+P26373+P40429+P50914+P61313+P18621+Q07020+Q02543+P84098+P46778+P35268+P62829+P62750+P83731+P61254+P61353+P46776+P46779+P47914+P62888+P62899+P62910+P49207+P42766+P18077+Q9Y3U8+P83881+P61927+P61513+P63173+P62891+P62945+P05388+P05386); experiment: Binding affinity to ribosomal protein S10 in human Hela cells lysates assessed as protein enrichment by Western blotting analysis; format: cell-free
[2] = species: Oryctolagus cuniculus; experiment: Inhibition of protein synthesis in rabbit reticulocytes pre-incubated for 30 mins before labeled-lysine-t-RNA and amino acid mixture addition and measured after 1 hr by luciferase reporter gene assay; format: functional, cell-based
[3] = target: T1, 80S Ribosome (Homo sapiens); experiment: Binding affinity to 40S ribosomal protein S17 in human Hela cells lysates assessed as protein enrichment by measuring normalized heavy/light ratio at by nano-LC-ESIMS/MS analysis; format: cell-free
[4] = target: T1, 80S Ribosome (Homo sapiens); experiment: Binding affinity to 40S ribosomal protein S24 in human Hela cells lysates assessed as protein enrichment by measuring normalized heavy/light ratio at by nano-LC-ESIMS/MS analysis; format: cell-free
[5] = target: T1, 80S Ribosome (Homo sapiens); experiment: Binding affinity to 40S ribosomal protein S26 in human Hela cells lysates assessed as protein enrichment by measuring normalized heavy/light ratio at by nano-LC-ESIMS/MS analysis; format: cell-free
[6] = target: Small ribosomal subunit protein eS27 (Homo sapiens) (UniProt P42677); experiment: Binding affinity to 40S ribosomal protein S27 in human Hela cells lysates assessed as protein enrichment by measuring normalized heavy/light ratio at by nano-LC-ESIMS/MS analysis; format: cell-free
[7] = target: T1, 80S Ribosome (Homo sapiens); experiment: Binding affinity to 40S ribosomal protein S5 in human Hela cells lysates assessed as protein enrichment by measuring normalized heavy/light ratio at by nano-LC-ESIMS/MS analysis; format: cell-free
[8] = target: 60 kDa heat shock protein, mitochondrial (Homo sapiens) (UniProt P10809); experiment: Binding affinity to 60 kDa heat shock protein in human Hela cells lysates assessed as protein enrichment by measuring normalized heavy/light ratio at by nano-LC-ESIMS/MS analysis; format: cell-free
[9] = target: T1, 80S Ribosome (Homo sapiens); experiment: Binding affinity to 60S ribosomal protein L13 in human Hela cells lysates assessed as protein enrichment by measuring normalized heavy/light ratio at by nano-LC-ESIMS/MS analysis; format: cell-free
[10] = target: T1, 80S Ribosome (Homo sapiens); experiment: Binding affinity to 60S ribosomal protein L23 in human Hela cells lysates assessed as protein enrichment by measuring normalized heavy/light ratio at by nano-LC-ESIMS/MS analysis; format: cell-free
[11] = target: T1, 80S Ribosome (Homo sapiens); experiment: Binding affinity to 60S ribosomal protein L31 in human Hela cells lysates assessed as protein enrichment by measuring normalized heavy/light ratio at by nano-LC-ESIMS/MS analysis; format: cell-free
[12] = target: T1, 80S Ribosome (Homo sapiens); experiment: Binding affinity to 60S ribosomal protein L9 in human Hela cells lysates assessed as protein enrichment by measuring normalized heavy/light ratio at by nano-LC-ESIMS/MS analysis; format: cell-free
[13] = target: Endoplasmic reticulum chaperone BiP (Homo sapiens) (UniProt P11021); experiment: Binding affinity to 78 kDa glucose-regulated protein in human Hela cells lysates assessed as protein enrichment by measuring normalized heavy/light ratio at by nano-LC-ESIMS/MS analysis; format: cell-free
[14] = target: Eukaryotic initiation factor 4A-II (Homo sapiens) (UniProt Q14240); experiment: Binding affinity to eukaryotic initiation factor 4A-II in human Hela cells lysates assessed as protein enrichment by measuring normalized heavy/light ratio at by nano-LC-ESIMS/MS analysis; format: cell-free
[15] = target: Glyceraldehyde-3-phosphate dehydrogenase (Homo sapiens) (UniProt P04406); experiment: Binding affinity to glyceraldehyde-3-phosphate dehydrogenase in human Hela cells lysates assessed as protein enrichment by measuring normalized heavy/light ratio at by nano-LC-ESIMS/MS analysis; format: cell-free
[16] = target: GTP-binding nuclear protein Ran (Homo sapiens) (UniProt P62826); experiment: Binding affinity to GTP-binding nuclear protein ran in human Hela cells lysates assessed as protein enrichment by measuring normalized heavy/light ratio at by nano-LC-ESIMS/MS analysis; format: cell-free
[17] = target: Heat shock cognate 71 kDa protein (Homo sapiens) (UniProt P11142); experiment: Binding affinity to heat shock cognate 71 kDa protein in human Hela cells lysates assessed as protein enrichment by measuring normalized heavy/light ratio at by nano-LC-ESIMS/MS analysis; format: cell-free
[18] = species: Homo sapiens; experiment: Binding affinity to histone H2A in human Hela cells lysates assessed as protein enrichment by measuring normalized heavy/light ratio at by nano-LC-ESIMS/MS analysis; format: cell-free
[19] = target: Peroxiredoxin-1 (Homo sapiens) (UniProt Q06830); experiment: Binding affinity to peroxiredoxin-1 in human Hela cells lysates assessed as protein enrichment by measuring normalized heavy/light ratio at by nano-LC-ESIMS/MS analysis; format: cell-free
[20] = target: Programmed cell death protein 6 (Homo sapiens) (UniProt O75340); experiment: Binding affinity to programmed cell death protein 6 in human Hela cells lysates assessed as protein enrichment by measuring normalized heavy/light ratio at by nano-LC-ESIMS/MS analysis; format: cell-free
[21] = target: Ras-related protein Rab-7a (Homo sapiens) (UniProt P51149); experiment: Binding affinity to ras-related protein rab-7a in human Hela cells lysates assessed as protein enrichment by measuring normalized heavy/light ratio at by nano-LC-ESIMS/MS analysis; format: cell-free
[22] = target: Transketolase (Homo sapiens) (UniProt P29401); experiment: Binding affinity to transketolase in human Hela cells lysates assessed as protein enrichment by measuring normalized heavy/light ratio at by nano-LC-ESIMS/MS analysis; format: cell-free
[23] = target: Trypsin (Homo sapiens) (UniProt P07477+P07478+P35030); experiment: Binding affinity to trypsin in human Hela cells lysates assessed as protein enrichment by measuring normalized heavy/light ratio at by nano-LC-ESIMS/MS analysis; format: cell-free
[24] = target: Tubulin alpha-1B chain (Homo sapiens) (UniProt P68363); experiment: Binding affinity to tubulin alpha-1B chain in human Hela cells lysates assessed as protein enrichment by measuring normalized heavy/light ratio at by nano-LC-ESIMS/MS analysis; format: cell-free
[25] = target: Tubulin beta-5 chain (Homo sapiens) (UniProt P07437); experiment: Binding affinity to tubulin beta chain in human Hela cells lysates assessed as protein enrichment by measuring normalized heavy/light ratio at by nano-LC-ESIMS/MS analysis; format: cell-free
[26] = Binding affinity to brain acid soluble protein 1 in human Hela cells lysates assessed as protein enrichment by measuring normalized heavy/light ratio at by nano-LC-ESIMS/MS analysis

Chain of Transketolase (Homo sapiens) (P29401 whole entry): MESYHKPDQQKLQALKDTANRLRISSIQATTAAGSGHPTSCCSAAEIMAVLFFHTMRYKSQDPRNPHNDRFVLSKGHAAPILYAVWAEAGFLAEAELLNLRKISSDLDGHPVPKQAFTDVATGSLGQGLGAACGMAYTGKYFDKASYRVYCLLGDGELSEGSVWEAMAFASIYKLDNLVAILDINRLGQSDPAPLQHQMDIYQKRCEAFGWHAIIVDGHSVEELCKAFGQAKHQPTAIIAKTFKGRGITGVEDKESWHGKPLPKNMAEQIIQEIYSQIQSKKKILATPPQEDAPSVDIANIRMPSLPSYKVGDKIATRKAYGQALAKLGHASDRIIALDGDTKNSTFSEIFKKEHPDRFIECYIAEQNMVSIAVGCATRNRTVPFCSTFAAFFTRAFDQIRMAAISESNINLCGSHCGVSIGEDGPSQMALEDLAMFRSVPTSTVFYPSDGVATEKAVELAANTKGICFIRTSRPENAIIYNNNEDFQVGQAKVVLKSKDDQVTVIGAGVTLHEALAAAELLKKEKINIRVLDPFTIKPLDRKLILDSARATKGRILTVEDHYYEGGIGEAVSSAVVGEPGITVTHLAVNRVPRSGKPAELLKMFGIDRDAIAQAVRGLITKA
Chain of Tubulin alpha-1B chain (Homo sapiens) (P68363 whole entry, looked up): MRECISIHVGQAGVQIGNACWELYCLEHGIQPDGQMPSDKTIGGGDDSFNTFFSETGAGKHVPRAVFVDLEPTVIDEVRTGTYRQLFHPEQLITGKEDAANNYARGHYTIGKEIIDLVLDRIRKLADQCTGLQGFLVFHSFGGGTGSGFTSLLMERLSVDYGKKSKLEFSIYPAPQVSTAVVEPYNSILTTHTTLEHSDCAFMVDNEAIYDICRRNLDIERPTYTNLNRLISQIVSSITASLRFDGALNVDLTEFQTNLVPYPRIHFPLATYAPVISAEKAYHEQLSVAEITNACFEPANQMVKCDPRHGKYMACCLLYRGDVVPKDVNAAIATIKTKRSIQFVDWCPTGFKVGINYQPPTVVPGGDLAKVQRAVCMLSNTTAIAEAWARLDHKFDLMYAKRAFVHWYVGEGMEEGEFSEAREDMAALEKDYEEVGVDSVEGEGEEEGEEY
Chain of Heat shock cognate 71 kDa protein (Homo sapiens) (P11142 2-646 limits assumed): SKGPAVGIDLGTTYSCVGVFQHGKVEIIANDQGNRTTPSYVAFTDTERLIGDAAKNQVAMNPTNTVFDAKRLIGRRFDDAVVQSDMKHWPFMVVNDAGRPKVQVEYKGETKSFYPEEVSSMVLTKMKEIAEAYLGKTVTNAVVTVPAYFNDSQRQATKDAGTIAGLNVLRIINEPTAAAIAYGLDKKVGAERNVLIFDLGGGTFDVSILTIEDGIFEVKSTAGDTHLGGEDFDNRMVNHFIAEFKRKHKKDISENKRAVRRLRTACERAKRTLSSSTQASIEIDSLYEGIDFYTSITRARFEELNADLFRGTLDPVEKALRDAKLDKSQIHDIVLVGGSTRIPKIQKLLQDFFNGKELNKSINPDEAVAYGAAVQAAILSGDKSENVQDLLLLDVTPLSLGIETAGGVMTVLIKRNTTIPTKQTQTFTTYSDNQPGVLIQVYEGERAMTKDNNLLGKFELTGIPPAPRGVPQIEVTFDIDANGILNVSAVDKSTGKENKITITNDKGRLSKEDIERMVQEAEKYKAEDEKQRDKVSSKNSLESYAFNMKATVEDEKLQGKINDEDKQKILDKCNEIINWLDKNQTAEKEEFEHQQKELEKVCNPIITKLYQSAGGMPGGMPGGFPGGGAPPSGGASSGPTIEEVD
Chain of Glyceraldehyde-3-phosphate dehydrogenase (Homo sapiens) (P04406 2-335 limits assumed): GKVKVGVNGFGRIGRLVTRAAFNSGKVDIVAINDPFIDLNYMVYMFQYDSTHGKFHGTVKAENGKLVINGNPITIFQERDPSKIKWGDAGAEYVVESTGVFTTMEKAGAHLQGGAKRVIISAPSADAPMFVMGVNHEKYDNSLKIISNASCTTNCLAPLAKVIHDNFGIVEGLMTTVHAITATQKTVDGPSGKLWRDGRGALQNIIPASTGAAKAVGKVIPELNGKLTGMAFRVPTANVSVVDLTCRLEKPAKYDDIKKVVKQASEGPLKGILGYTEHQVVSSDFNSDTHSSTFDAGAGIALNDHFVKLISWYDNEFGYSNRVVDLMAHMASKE
Chain of Tubulin beta-5 chain (Homo sapiens) (P07437 whole entry): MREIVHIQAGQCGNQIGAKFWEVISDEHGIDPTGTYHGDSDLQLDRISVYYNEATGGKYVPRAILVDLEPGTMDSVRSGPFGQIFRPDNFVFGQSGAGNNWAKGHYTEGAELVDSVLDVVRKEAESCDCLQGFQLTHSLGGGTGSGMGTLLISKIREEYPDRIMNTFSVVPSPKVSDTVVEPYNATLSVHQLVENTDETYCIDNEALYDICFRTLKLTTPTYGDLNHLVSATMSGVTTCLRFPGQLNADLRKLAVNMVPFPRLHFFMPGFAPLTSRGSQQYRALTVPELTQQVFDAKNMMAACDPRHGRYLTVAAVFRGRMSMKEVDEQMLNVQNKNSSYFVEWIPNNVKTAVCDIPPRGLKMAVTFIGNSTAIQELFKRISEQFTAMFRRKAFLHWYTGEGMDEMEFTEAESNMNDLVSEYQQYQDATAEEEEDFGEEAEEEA
Chain of Endoplasmic reticulum chaperone BiP (Homo sapiens) (P11021 whole entry): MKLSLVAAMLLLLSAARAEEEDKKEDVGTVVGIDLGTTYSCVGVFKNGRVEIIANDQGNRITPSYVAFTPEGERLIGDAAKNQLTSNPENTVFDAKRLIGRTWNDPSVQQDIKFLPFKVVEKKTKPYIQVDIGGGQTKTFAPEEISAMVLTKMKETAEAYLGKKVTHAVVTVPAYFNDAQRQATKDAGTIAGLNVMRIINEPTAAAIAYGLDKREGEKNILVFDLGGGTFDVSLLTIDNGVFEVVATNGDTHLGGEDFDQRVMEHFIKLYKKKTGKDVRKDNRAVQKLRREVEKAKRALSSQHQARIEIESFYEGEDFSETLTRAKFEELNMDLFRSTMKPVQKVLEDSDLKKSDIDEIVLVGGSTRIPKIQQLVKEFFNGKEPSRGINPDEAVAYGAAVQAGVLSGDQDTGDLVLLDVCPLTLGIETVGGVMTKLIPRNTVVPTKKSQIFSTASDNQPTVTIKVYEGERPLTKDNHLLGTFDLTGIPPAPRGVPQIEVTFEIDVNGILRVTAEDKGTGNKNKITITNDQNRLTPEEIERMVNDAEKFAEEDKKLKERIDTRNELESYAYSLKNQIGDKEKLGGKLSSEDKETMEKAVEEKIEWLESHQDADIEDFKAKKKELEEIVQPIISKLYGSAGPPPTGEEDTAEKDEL
Chain of Ras-related protein Rab-7a (Homo sapiens) (P51149 whole entry): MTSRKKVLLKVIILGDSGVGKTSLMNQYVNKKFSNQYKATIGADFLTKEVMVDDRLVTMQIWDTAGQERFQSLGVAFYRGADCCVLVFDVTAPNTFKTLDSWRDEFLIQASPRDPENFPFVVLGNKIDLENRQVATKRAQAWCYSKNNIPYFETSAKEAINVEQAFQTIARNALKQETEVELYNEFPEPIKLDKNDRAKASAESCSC
Chain of 60 kDa heat shock protein, mitochondrial (Homo sapiens) (P10809 whole entry): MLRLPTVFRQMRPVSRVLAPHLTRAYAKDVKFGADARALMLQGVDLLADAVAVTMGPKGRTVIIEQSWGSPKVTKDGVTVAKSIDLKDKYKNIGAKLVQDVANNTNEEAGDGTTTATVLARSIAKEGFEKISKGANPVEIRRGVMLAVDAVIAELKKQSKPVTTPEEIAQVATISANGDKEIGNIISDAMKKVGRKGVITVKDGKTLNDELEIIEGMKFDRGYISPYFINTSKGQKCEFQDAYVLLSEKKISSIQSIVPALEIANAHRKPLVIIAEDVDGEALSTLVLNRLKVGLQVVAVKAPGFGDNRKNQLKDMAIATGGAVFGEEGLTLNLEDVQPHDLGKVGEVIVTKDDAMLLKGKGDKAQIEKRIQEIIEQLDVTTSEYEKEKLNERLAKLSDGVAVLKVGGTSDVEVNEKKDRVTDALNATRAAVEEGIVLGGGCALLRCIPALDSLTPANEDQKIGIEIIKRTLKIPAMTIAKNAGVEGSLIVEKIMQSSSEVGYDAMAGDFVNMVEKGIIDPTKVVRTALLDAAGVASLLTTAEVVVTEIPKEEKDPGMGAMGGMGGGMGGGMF
Chain of Peroxiredoxin-1 (Homo sapiens) (Q06830 whole entry): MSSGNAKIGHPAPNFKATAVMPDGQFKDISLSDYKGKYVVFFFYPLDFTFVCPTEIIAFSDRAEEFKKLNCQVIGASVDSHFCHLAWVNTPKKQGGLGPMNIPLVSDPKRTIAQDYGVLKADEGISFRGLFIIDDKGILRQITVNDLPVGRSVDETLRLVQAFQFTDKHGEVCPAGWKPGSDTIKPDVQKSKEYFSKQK
Chain of Eukaryotic initiation factor 4A-II (Homo sapiens) (Q14240 whole entry): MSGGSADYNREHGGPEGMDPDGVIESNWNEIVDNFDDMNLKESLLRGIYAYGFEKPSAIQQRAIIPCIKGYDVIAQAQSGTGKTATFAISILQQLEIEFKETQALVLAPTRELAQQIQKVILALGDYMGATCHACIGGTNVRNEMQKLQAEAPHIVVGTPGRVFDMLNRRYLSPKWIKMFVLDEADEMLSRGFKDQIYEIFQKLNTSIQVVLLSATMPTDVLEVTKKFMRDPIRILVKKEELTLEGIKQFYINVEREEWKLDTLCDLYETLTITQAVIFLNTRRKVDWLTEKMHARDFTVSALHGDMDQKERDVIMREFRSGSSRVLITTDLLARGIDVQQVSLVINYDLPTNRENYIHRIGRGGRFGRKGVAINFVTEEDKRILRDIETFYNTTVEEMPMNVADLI
Chain of Programmed cell death protein 6 (Homo sapiens) (O75340 whole entry): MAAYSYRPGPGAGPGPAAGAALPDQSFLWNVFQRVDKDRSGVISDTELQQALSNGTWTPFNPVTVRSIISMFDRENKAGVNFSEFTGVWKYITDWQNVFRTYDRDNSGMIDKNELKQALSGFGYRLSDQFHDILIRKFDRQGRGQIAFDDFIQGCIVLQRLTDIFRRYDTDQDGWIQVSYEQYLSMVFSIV

SMILES: C/C=C(\C)C(=O)O[C@H]1[C@H](O)[C@]2(COC(C)=O)[C@@H](O)C[C@]3(C)C(=CC[C@@H]4[C@@]5(C)CC[C@H](O[C@@H]6O[C@H](C(=O)O)[C@@H](O)[C@H](O)[C@H]6O)[C@@](C)(CO)[C@@H]5CC[C@]43C)[C@@H]2CC1(C)C
- Activity [1]: Active
- inhibition [2]: Dose-dependent effect
- Ratio [3]: 0.069
- Ratio [4]: 0.173
- Ratio [5]: 0.158
- Ratio [6]: 0.418
- Ratio [7]: 0.255
- Ratio [8]: 0.57
- Ratio [9]: 0.332
- Ratio [10]: 0.527
- Ratio [11]: 0.439
- Ratio [12]: 0.453
- Ratio [13]: 0.527
- Ratio [14]: 0.404
- Ratio [15]: 0.524
- Ratio [16]: 1.53
- Ratio [17]: 0.615
- Ratio [18]: 0.509
- Ratio [19]: 1.06
- Ratio [20]: 0.68
- Ratio [21]: 0.568
- Ratio [22]: 0.623
- Ratio [23]: 1
- Ratio [24]: 0.523
- Ratio [25]: 0.52
- Ratio [26]: 0.744
